Data published in PMC11111691, “Cystine-knot peptide inhibitors of HTRA1 bind to a cryptic pocket within the active site region” (Nature Communications, 2024).
Positions of bridges follow the written chain, without caps; N, C: chain ends. Residues, ends and D or L forms follow the SMILES beside them.

Tests used:
HTRA1^FL = target: T1, HTRA1^FL (Homo sapiens, UniProt Q92743); test: HTRA1^FL enzyme inhibition assay with synthetic substrate H2-OPT; type: biochemical
T1 construct: Human full-length HTRA1 (HTRA1^FL, Q23-P480); made in house; host or cells: Trichoplusia ni cells
Procedure, shortened: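 CKP or 7mer-ABP preincubated with protease at 37 °C (CKP 60 min; 7mer-ABP 15 min, 2 µM selectivity), then 5 µM Mca-IRRVSYSFK(Dnp)K added in TNC buffer, 0.25% DMSO. Cleavage read kinetically at 37 °C (ex 328/em 393 nm); initial rates as % DMSO control, IC50 by 4PL fit.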

HeLa cells = test: Cell toxicity assay (CellTiter-Glo), HeLa; type: cell-based
Method: reduction at the highest CKP concentration of 50 µM after 72 h (see results below). The absence of cell toxicity is likely due to the inability of the CKPs to penetrate cell membranes, which was experimentally determined in response to another reviewer. Due to space limitations we have not […]
Protocol of cell toxicity assay (Figure above):
HeLa cells or C32 melanoma cells were passaged in DMEM media supplemented with 10% FBS, 1% pen-strep and 1x Glutamax using standard culture conditions (5% CO2, 90% humidity at 37°C). At approximately 95% confluence cells were trypsinized, seeded onto 96-well plates (Corning) at 10,000 cells/well and grown for 24 h. Cells were then incubated with the CKPs 3B3, 1D3-ENI and 1G10-ENI (0, 0.6, 1.9, 5.6, 16.7 and 50 µM) at 37°C for 24 h or for 72h. As a positive control we used staurosporine (STS; 1µM). Cell viability was measured using the CellTiter-Glo luminescent cell viability assay (Promega) on an Envision Multilabel plate reader. Average of at least three independent experiments ± S.D. were plotted in Prism 10. Two-way ANOVA was performed on each dataset and compared to no drug samples and no significant viability reductions were observed, except for some treatments at the […]

HTRA2^PD/PDZ = target: T2, HTRA2^PD/PDZ (Homo sapiens, UniProt O43464); test: Fluorescence-quenched casein-BODIPY assay, HTRA2; type: biochemical; conditions: 30 nM HTRA2^PD/PDZ, 2 µM CKP (0.5 mM 7mer-ABP)
T2 construct: Human HTRA2^PD/PDZ (A134-E458) was from R & D Systems; purchased R & D Systems 1458-HT-100
T2 sequence (O43464 134-458): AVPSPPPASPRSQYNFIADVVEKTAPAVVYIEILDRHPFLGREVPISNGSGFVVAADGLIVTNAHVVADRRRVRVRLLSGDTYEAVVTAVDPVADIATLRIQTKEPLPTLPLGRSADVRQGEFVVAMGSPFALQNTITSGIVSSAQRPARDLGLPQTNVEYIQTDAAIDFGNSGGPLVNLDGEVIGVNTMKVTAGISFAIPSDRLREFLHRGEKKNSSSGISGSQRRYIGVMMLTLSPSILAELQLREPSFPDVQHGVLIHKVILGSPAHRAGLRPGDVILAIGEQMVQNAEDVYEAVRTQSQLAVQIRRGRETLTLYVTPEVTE
Method: (§1) The fluorescence-quenched casein-BODIPY® assay (EnzCheck®, Thermo Fisher Scientific) was carried out in TNC buffer (50 mM Tris pH 8.0, 200 mM NaCl, 0.25% CHAPS) at 37 °C in 96-well black optical bottom plates (Nalge Nunc Int., Rochester, NY). Enzymes were incubated with CKPs or DMSO control for 15 min prior to addition of casein substrate. The reactant concentrations were: 30 nM HTRA1^FL, 30 nM HTRA1^PD/PDZ, 30 nM HTRA1^PD, 30 nM HTRA2^PD/PDZ, 30 nM HTRA3^FL, 100 nM HTRA3^PD/PDZ, 30 nM HTRA4^FL, 300 nM HTRA4^PD/PDZ, 2 µM CKP, 5 µg/ml casein substrate and 0.25% DMSO. For selectivity assays, 0.5 mM 7mer-ABP was used as positive control. The kinetics of substrate cleavage were measured at 37 °C on a SpectraMax M5 microplate reader (Molecular Devices) with excitation of 485 nm and emission of 530 nm for 30 min (HTRA1 and HTRA2) or 5 h (HTRA3 and HTRA4). The determined initial rates of cleavage were expressed as percent of control (DMSO control) after subtracting the baseline rates (without enzyme).

HTRA3^PD/PDZ, HTRA3^FL [1] = target: T3, HTRA3^PD/PDZ, HTRA3^FL (Homo sapiens, UniProt P83110); test: Fluorescence-quenched casein-BODIPY assay, HTRA3; type: biochemical; conditions: 2 µM CKP (0.5 mM 7mer-ABP)
T3 construct: purchased Abcam (FL form); the PD/PDZ form was made in house in E. coli ab134450
Method: as §1

HTRA3^PD/PDZ, HTRA3^FL [2] = target: T3, HTRA3^PD/PDZ, HTRA3^FL; test: H2-OPT selectivity assay, HTRA3; type: biochemical; conditions: 2 µM CKP (0.5 mM 7mer-ABP)
Method: Assays with the fluorescence-quenched synthetic substrate Mca-IRRVSYSFK(Dnp)K (H2-OPT)[38],[60] were carried out essentially as described. CKP stock solutions in DMSO were diluted in TNC buffer (dilution series for IC50 determinations, or final concentration of 2 µM for selectivity assay or as indicated for HTRA1/4 mutants) and incubated with enzymes in 96-well black optical bottom plates for 60 min at 37 °C. For selectivity experiments we used the 7mer-ABP as inhibitor, which was incubated with the proteases for 15 min at 37 °C. A 10 mM stock solution of H2-OPT in DMSO was diluted with water, prewarmed at 37 °C and then added to the CKP-enzyme mixtures. The final concentrations in the reaction mixtures were: 1 nM HTRA1^FL, 3 nM HTRA1^PD/PDZ, 1 nM HTRA1^PD, 1 nM HTRA2^PD/PDZ, 3 nM HTRA3^FL, 60 nM HTRA3^PD/PDZ, 6 nM HTRA4^FL, 1 µM HTRA4^PD/PDZ, 1 nM mouse HTRA1^PD, 25 nM HTRA1^PD-A202Y, 1 µM HTRA4^PD/PDZ-Y200A, 0.5 mM 7mer-ABP, 5 µM H2-OPT, and 0.25% DMSO. The kinetics of substrate cleavage was measured at 37 °C on a SpectraMax M5 microplate reader with excitation of 328 nm and emission of 393 nm. The determined initial rates of cleavage were expressed as percent of control (DMSO control) after subtracting the baseline rates (without enzyme). IC50 values were determined by Sigmoidal 4PL modeling of multiple data points from serial dilutions of CKPs using Prism 9 software (GraphPad). […]

T1 sequence (Q92743 23-480): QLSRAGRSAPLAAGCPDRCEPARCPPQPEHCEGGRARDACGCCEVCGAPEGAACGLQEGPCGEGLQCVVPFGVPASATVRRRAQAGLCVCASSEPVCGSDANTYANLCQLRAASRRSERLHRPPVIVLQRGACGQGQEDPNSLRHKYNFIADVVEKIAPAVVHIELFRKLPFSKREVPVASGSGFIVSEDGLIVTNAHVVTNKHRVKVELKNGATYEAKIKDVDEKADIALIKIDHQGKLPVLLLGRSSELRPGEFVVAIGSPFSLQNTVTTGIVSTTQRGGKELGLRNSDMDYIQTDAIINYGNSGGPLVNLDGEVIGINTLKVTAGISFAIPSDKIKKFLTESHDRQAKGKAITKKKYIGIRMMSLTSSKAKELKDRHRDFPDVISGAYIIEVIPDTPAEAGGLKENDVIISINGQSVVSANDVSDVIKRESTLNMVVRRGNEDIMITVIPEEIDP

Molecule	IC50 (HTRA1^FL) [nM]	Viability reduction, HeLa cells, 24 h (HeLa cells; 50 µM CKP, 24 h) [%]	Viability reduction, HeLa cells, 72 h (HeLa cells; 50 µM CKP, 72 h) [%]	Cell viability, HeLa cells (HeLa cells; 0.6-50 µM CKP, 24 h and 72 h, at least three independent experiments)	Inhibition of HTRA1^FL at single concentration, H2-OPT (% of control) (HTRA1^FL; 1 nM HTRA1^FL, 2 µM CKP (0.5 mM 7mer-ABP))	Inhibition of HTRA2^PD/PDZ, casein-BODIPY cleavage (% of control) (HTRA2^PD/PDZ)	Inhibition of HTRA3^FL, casein-BODIPY cleavage (% of control) (HTRA3^PD/PDZ, HTRA3^FL [1]; 30 nM HTRA3^FL)	Inhibition of HTRA3^PD/PDZ, casein-BODIPY cleavage (% of control) (HTRA3^PD/PDZ, HTRA3^FL [1]; 100 nM HTRA3^PD/PDZ)	Inhibition of HTRA3^FL, H2-OPT (% of control) (HTRA3^PD/PDZ, HTRA3^FL [2]; 3 nM HTRA3^FL)	Inhibition of HTRA3^PD/PDZ, H2-OPT (% of control) (HTRA3^PD/PDZ, HTRA3^FL [2]; 60 nM HTRA3^PD/PDZ, 5 µM H2-OPT)
CC[C@H](C)[C@H](NC(=O)[C@@H]1CCCN1C(=O)[C@H](CC(=O)O)NC(=O)[C@H](C)NC(=O)[C@@H](N)Cc1c[nH]cn1)C(=O)N[C@H]1CSSC[C@@H]2NC(=O)[C@H](Cc3ccccc3)NC(=O)[C@H](Cc3c[nH]c4ccccc34)NC(=O)[C@H](C)NC(=O)CNC(=O)[C@H](CO)NC(=O)[C@@H]3CSSC[C@@H](C(=O)NCC(=O)N4CCC[C@H]4C(=O)N[C@@H](Cc4ccc(O)cc4)C(=O)N[C@H](C(=O)NCC(N)=O)C(C)C)NC(=O)[C@H](CO)NC(=O)[C@H](Cc4c[nH]c5ccccc45)NC(=O)[C@H]([C@@H](C)O)NC(=O)[C@H](C)NC(=O)[C@H](Cc4ccc(O)cc4)NC(=O)[C@H](Cc4ccc(O)cc4)NC(=O)[C@H](CSSC[C@H](NC(=O)[C@@H]4CCCN4C(=O)[C@H](CCCCN)NC(=O)[C@H](CC(N)=O)NC1=O)C(=O)N[C@@H](CCCCN)C(=O)N[C@@H]([C@@H](C)O)C(=O)N[C@@H](Cc1c[nH]cn1)C(=O)N[C@@H](CC(=O)O)C(=O)N[C@@H](CC(=O)O)C(=O)N3)NC(=O)[C@H](C)NC(=O)[C@H](CCC(N)=O)NC2=O [3B3] (H-HADPICNKPCKTHDDCSGAWFCQACYYATWSCGPYVG-NH2; disulfide 6-22, 10-25, 16-32)	53	9	13	did not appreciably affect cell viability						
DPMFKLV-phosphonate [7mer-ABP]					significantly inhibited	significantly inhibited	significantly inhibited	significantly inhibited	significantly inhibited	significantly inhibited
